Holding throughout (type): in vivo, rats (Sprague Dawley)
Data set [1] concerns aconitine-induced arrhythmia of rats. The data set is described as follows: Anti-arrhythmic effect on aconitine-induced arrhythmia in rats, oral administration. The note with it: for ED50 / Emax: Rattus norvegicus, po; for ED50: read-out: ED 50% (dose which lengthens the duration of aconitine infusion by 50%); for Emax: read-out: R.M.E. = relative maximum effect; for Maximum effect: lengthening of the duration of aconitine infusion, Δ%: at the maximum tolerated dose, oral, rats; for R.A. = relative activity: relative to Prajmalium = 1.00, from ED 50%; for anti-arrhythmic activity compared with Prajmalium: in words, aconitine-induced arrhythmia of rats. As for the experimental part: (§1) To determine the anti-arrhythmic activity, the substances are administered orally to rats (Sprague Dawley, weight 200-250 g), 45 minutes before narcosis.
(§2) The animals are narcotized with sodium thiobutabarbital (100 mg/kg administered intraperitoneally). The arrhythmogenic substance used is aconitine, which is infused intravenously, at a rate of 0.005 mg/kg×min 60 minutes after the administration of the anti-arrhythmicagent. In untreated animals (N=52), arrhythmias manifest themselves in the electrocardiogram (ECG) after 2.74±0.07 min, and the occurrence of these can be delayed by the anti-arrhythmic agents, the delay being dependent on the dose.
The dose which lengthens the duration of infusion up to the occurrence of arrhythmias by 50%, namely the ED 50%, is determined from the linear relationships between log dose (mg/kg) of the test substance and the relative increase in the duration of aconitine infusion (Δ%).
(§3) For further characterization of the substances, the anti-arrhythmic effect of the maximum tolerated dose is determined from the decimal-geometric dose progression (factor 3.cuberoot.10) employed in the experiments. Furthermore, the dose at which toxic symptoms (changes in the initial ECG, cyanosis and cramps) occur is determined.
^(1) Dose which lengthens the duration of aconitine infusion by 50%
^(2) R.A. = relative activity. Prajmalium = 1.00
(§4) ^(3) Effect of the maximum tolerated dose
^(4) Lengthening of the duration of aconitin infusion, Δ %
^(5) R.M.E. = relative maximum effect, Prajmalium = 1.00

Data set [2] can be described thus: Toxicity / toleration in rats (changes in the initial ECG, cyanosis and cramps), oral administration. The arrangement: Toxicity: Dose whose administration produces the first toxic symptoms: unit: mg/kg. The settings on record: rat, in vivo; oral, rats; mg/kg printed only over the effective dose columns and in b40 (log dose); read-out: Maximum effect: Dose (maximum tolerated dose). The procedure: as §1, §2, §3, §4
(§5) ^(6) Dose whose administration produces the first toxic symptoms

For another data set, the system named is rats. Described as above. Also noted: Toxicity: Dose whose administration produces the first toxic symptoms: unit: mg/kg. The settings on record: for Toxicity: Dose whose administration produces the first toxic symptoms / Q (therapeutic range, quotient of the toxic dose and the ED 50%): oral, rats; for Toxicity: Dose whose administration produces the first toxic symptoms: mg/kg printed only over the effective dose columns and in b40 (log dose); for Q (therapeutic range, quotient of the toxic dose and the ED 50%): toxic dose / ED 50%. The procedure:
as §1, §2, §3, §4, §5

Structures are written as SMILES. Structures can show the parent of a compound that is named as a salt.

For `CCOC(=O)c1[nH]c(C)c(C)c1OCC(O)CN1CCC(O)(c2ccccn2)CC1` (stereo not drawn) [Example 1, 3-[2-hydroxy-3-(4-α-pyridyl-4-hydroxy-piperidino)-propoxy]-4,5-dimethyl-pyrrole-2-carboxylic acid ethyl ester dihydrochloride], in data set [1], the ED50 amounted to 7.8 mg/kg; the Emax is 186%; the “Maximum effect: lengthening of the duration of aconitine infusion, Δ%” value (from here on “Maximum effect: lengthening of the duration … Δ%”) was 324%; the “R.A. = relative activity” value is listed as 0.64. Further, the MTD in data set [2] is 46.4 mg/kg. Besides, in the data set with rats, the “Toxicity: Dose whose administration produces the first toxic symptoms” value is given as 100; the “Q (therapeutic range, quotient of the toxic dose and the ED 50%)” value was 13.
In the case of `CCOC(=O)c1[nH]c(C)c(C)c1OCC(O)CN1CCC(O)(c2ccccc2)CC1` (centres unmarked) [Example 2, 3-[2-hydroxy-3-(4-phenyl-4-hydroxy-piperidino)-propoxy]-4,5-dimethyl-pyrrole-2-carboxylic acid ethyl ester hydrochloride], in data set [1], the ED50 was 6.23 mg/kg; the Emax was 98%; the “Maximum effect: lengthening of the duration … Δ%” value is 170%; the “anti-arrhythmic activity compared with Prajmalium” value is given as “as active as Prajmalium”. Also, in data set [1], the “R.A. = relative activity” value came to 0.80. For the same compound, the MTD in data set [2] worked out at 21.5 mg/kg. In the data set with rats, the “Toxicity: Dose whose administration produces the first toxic symptoms” value was 46.4; the “Q (therapeutic range, quotient of the toxic dose and the ED 50%)” value is reported as 7.5.
Turning to `COC(=O)c1[nH]c(C)c(C)c1OCCCN1CCC(O)(c2ccccc2)CC1` [Example 6, 3-[3-(4-phenyl-4-hydroxy-piperidino)-propoxy]-4,5-dimethylpyrrole-2-carboxylic acid methyl ester], in data set [1], the ED50 worked out at 3.68 mg/kg; the Emax came to 87%; the “Maximum effect: lengthening of the duration … Δ%” value is 152%; the “anti-arrhythmic activity compared with Prajmalium” value was “surpass the latter”. The “R.A. = relative activity” value in data set [1] is on record as 1.36. Besides, the MTD in data set [2] amounted to 10 mg/kg. Moreover, in the data set with rats (in words), the “toxic dose compared with Prajmalium” value is “of equal toxicity to Prajmalium”. In the data set on rats, the “Toxicity: Dose whose administration produces the first toxic symptoms” value is 21.5; the “Q (therapeutic range, quotient of the toxic dose and the ED 50%)” value is listed as 5.8.
On to `COC(=O)c1[nH]c(C)c(C)c1OCC(O)CN1CCC(O)(c2ccccn2)CC1` (stereo not drawn) [Example 7, 3-[2-hydroxy-3-(4-α-pyridyl-4-hydroxy-piperidino)-propoxy]-4,5-dimethylpyrrole-2-carboxylic acid methyl ester], for which, in data set [1], the ED50 amounted to 13.5 mg/kg; the Emax was determined as 176%; the “Maximum effect: lengthening of the duration … Δ%” value is 307%; the “R.A. = relative activity” value is given as 0.37. In addition, the MTD in data set [2] was found to be 46.4 mg/kg. In addition, in the data set with rats, the “Toxicity: Dose whose administration produces the first toxic symptoms” value was determined as 100; the “Q (therapeutic range, quotient of the toxic dose and the ED 50%)” value turned out to be 7.4.
On to `CCOC(=O)c1[nH]c(C)c(C)c1OCCN1CCC(O)(c2ccccc2)CC1` [Example 10, 3-[2-(4-phenyl-4-hydroxy-piperidino)-ethoxy]-4,5-dimethylpyrrole-2-carboxylic acid ethyl ester], for which, in data set [1], the ED50 was 2.99 mg/kg; the Emax worked out at 199%; the “Maximum effect: lengthening of the duration … Δ%” value is 347%; the “anti-arrhythmic activity compared with Prajmalium” value is “surpass the latter”. In addition, the “R.A. = relative activity” value in data set [1] came out at 1.67. In addition, in data set [2], the MTD stood at 21.5 mg/kg. In addition, in the data set with rats, the “Toxicity: Dose whose administration produces the first toxic symptoms” value stood at 46.4; the “Q (therapeutic range, quotient of the toxic dose and the ED 50%)” value worked out at 16.
With `COC(=O)c1[nH]c(C)c(C)c1OCCCCN1CCC(O)(c2ccccc2)CC1` [Example 11, 3-[4-(4-phenyl-4-hydroxy-piperidino)-butoxy]-4,5-dimethylpyrrole-2-carboxylic acid methyl ester], in data set [1], the ED50 came out at 5.54 mg/kg; the Emax came to 177%; the “Maximum effect: lengthening of the duration … Δ%” value amounted to 308%; the “anti-arrhythmic activity compared with Prajmalium” value is recorded as “as active as Prajmalium”. The “R.A. = relative activity” value in data set [1] was 0.90. In data set [2], the MTD came out at 21.5 mg/kg. For the same compound, in the data set with rats, the “Toxicity: Dose whose administration produces the first toxic symptoms” value worked out at 46.4; the “Q (therapeutic range, quotient of the toxic dose and the ED 50%)” value worked out at 8.4.
Regarding `CCOC(=O)c1[nH]c(C)c(C)c1OCC(O)CN1CCC(O)(c2ccc(F)cc2)CC1` (centres unmarked) [Example 13, 3-[2-hydroxy-3-(4-(p-fluorophenyl)-4-hydroxy-piperidino)-propoxy]-4,5-dimethylpyrrole-2-carboxylic acid ethyl ester], in data set [1], the ED50 turned out to be 5.93 mg/kg; the Emax worked out at 86%; the “Maximum effect: lengthening of the duration … Δ%” value is listed as 149%; the “anti-arrhythmic activity compared with Prajmalium” value was “as active as Prajmalium”. For the same compound, the “R.A. = relative activity” value in data set [1] worked out at 0.84. Moreover, the MTD in data set [2] was determined as 21.5 mg/kg. Moreover, in the data set on rats, the “Toxicity: Dose whose administration produces the first toxic symptoms” value is recorded as 46.4; the “Q (therapeutic range, quotient of the toxic dose and the ED 50%)” value is 7.8.
Take `COC(=O)c1[nH]c(C)c(C)c1OCC(O)CN1CCC(O)(c2ccccc2)CC1` (centres unmarked) [Example 19, 3-[2-hydroxy-3-(4-phenyl-4-hydroxy-piperidino)-propoxy]-4,5-dimethyl-pyrrole-2-carboxylic acid methyl ester]: in data set [1], the ED50 came to 3.38 mg/kg; the Emax was found to be 174%; the “Maximum effect: lengthening of the duration … Δ%” value is given as 302%; the “anti-arrhythmic activity compared with Prajmalium” value is “surpass the latter”. Further, in data set [1], the “R.A. = relative activity” value is 1.48. Moreover, in data set [2], the MTD was determined as 21.5 mg/kg. Further, in the data set with rats, the “Toxicity: Dose whose administration produces the first toxic symptoms” value is given as 46.4; the “Q (therapeutic range, quotient of the toxic dose and the ED 50%)” value was 14.
`CCCCc1c(C)[nH]c(C(=O)OCC)c1OCC(O)CN1CCC(O)(c2ccccc2)CC1` (centres unmarked) [Example 21, 3-[2-hydroxy-3-(4-phenyl-4-hydroxy-piperidino)-propoxy]-4-n-butyl-5-methyl-pyrrole-2-carboxylic acid ethyl ester]: in data set [1], the ED50 stood at 9.85 mg/kg; the Emax is 99%; the “Maximum effect: lengthening of the duration … Δ%” value amounted to 173%; the “R.A. = relative activity” value is 0.51. In data set [2], the MTD turned out to be 46.4 mg/kg. In the data set on rats, the “Toxicity: Dose whose administration produces the first toxic symptoms” value stood at 100; the “Q (therapeutic range, quotient of the toxic dose and the ED 50%)” value came out at 10.
With `CCC[N+]12C(O)C(CC)C3CC1C1N(C)c4ccccc4C14CC2C3C4O` (centres unmarked) [Prajmalium, N-propylajmalin, reference compound], in data set [1], the ED50 turned out to be 4.99 mg/kg; the Emax stood at 100%; the “Maximum effect: lengthening of the duration … Δ%” value was 174%; the “R.A. = relative activity” value worked out at 1.00. For the same compound, the MTD in data set [2] came to 10 mg/kg. In the data set on rats, the “Toxicity: Dose whose administration produces the first toxic symptoms” value was determined as 21.5; the “Q (therapeutic range, quotient of the toxic dose and the ED 50%)” value amounted to 4.3.

The values are drawn from patent publication US4315939A, “Piperidine derivatives of 4,5-dialkyl-3-hydroxy-pyrrole-2-carboxylic acid esters, pharmaceutical formulations containing these compounds and use in treating cardiac arrhythmias” (priority 1979, dated 1982).
